These results are taken from US10016500B2, “Poloxamer-based pharmaceutical compositions for treating wounds” (Professional Compounding Centers of America (PCCA), priority 2014, dated 2018).

Some results are limits rather than exact numbers.

This assay has as its system C. albicans ATCC 90028 biofilm. The experiment in a line: Antifungal biofilm susceptibility testing (Minimum Biofilm Inhibitory Concentration, broth microdilution, CellTiter 96). The assay is classed as cell-based, Candida albicans. Conditions: for Minimum Biofilm Inhibitory Concentration: lowest concentration giving 50% reduction of fungal growth, 48 h at 35° C., combination expressed as concentration of itraconazole. How it is done: Materials: Itraconazole EP Micronized (lot number C149307) and PCCA Formula #10342 (4 g of Itraconazole EP Micronized+37.574 g of Poloxamer composition) were provided by PCCA (Houston, Tex., USA) as powders. Itraconazole and PCCA Formula #10342 were prepared on the day of the assay. Fluconazole and amphotericin B were obtained as powders and stored at 4° C. […] Strain: Candida albicans isolate ATCC 90028 was obtained from American Type Culture Collection (Manassas, Va.), and used in the course of this study. Methods: In order to determine antimicrobial activity of itraconazole and the micronized poloxamer composition against biofilms of Candida albicans, an antifungal biofilm susceptibility testing was developed in conditions where a Minimum Biofilm Inhibitory Concentration (MBIC) of itraconazole within the micronized poloxamer composition, micronized poloxamer excipient, itraconazole, fluconazole and amphotericin B was measured for the C. albicans biofilm according to the conventional NCCLS M27-A broth microdilution method. The testing medium used for growing was RPMI 1640 (American Biorganics, Inc., […].) supplemented with L-glutamine (Sigma Aldrich®). Yeast inocula (100 μL of 1×10^6 cells/mL) were added to each well of 96-well microtiter plates (Corning) and incubated at 37° C. for 48 h. After biofilm formation, medium was aspirated and non-adherent cells were […] (PBS, Sigma Aldrich®). […] A series of sample-free wells and biofilm-free wells were also included to serve as positive and negative controls, respectively. […] Cell viability was determined by using a conventional CellTiter 96® Non-Radioactive Cell Proliferation Assay.
On the technique in general: Broth dilution looks for growth in wells or tubes with falling amounts of substance.

Consider `CCC(C)n1ncn(-c2ccc(N3CCN(c4ccc(OCC5COC(Cn6cncn6)(c6ccc(Cl)cc6Cl)O5)cc4)CC3)cc2)c1=O` (centres unmarked) [Itraconazole, itraconazole], for which the “Minimum Biofilm Inhibitory Concentration” value was found to be 1024 µg/mL.
On to `C[C@@H]1[C@H](O)[C@@H](C)/C=C/C=C/C=C/C=C/C=C/C=C/C=C/[C@H](O[C@@H]2O[C@H](C)[C@@H](O)[C@H](N)[C@@H]2O)C[C@@H]2O[C@](O)(C[C@@H](O)C[C@@H](O)[C@H](O)CC[C@@H](O)C[C@@H](O)CC(=O)O[C@H]1C)C[C@H](O)[C@H]2C(=O)O` [Amphotericin B, amphotericin B], for which the MBIC came out at 0.5 µg/mL and the “Minimum Biofilm Inhibitory Concentration” value was found to be 0.5 µg/mL.
Regarding `OC(Cn1cncn1)(Cn1cncn1)c1ccc(F)cc1F` [Fluconazole, fluconazole], the MBIC was greater than 1024 µg/mL and the “Minimum Biofilm Inhibitory Concentration” value is reported as >1,024 ug/mL.
